The values below come from ChEMBL document CHEMBL1133113, “Fast calculation of molecular polar surface area as a sum of fragment-based contributions and its application to the prediction of drug transport properties” (J Med Chem, 2000).

This series can be described thus: Percent of drug absorbed by human intestine after oral administration. It counts as ADME, organism-based. The following applies: in vivo.

Take `C=CCc1ccccc1OCC(O)CNC(C)C` (centres undefined) [ALPRENOLOL]: the Fa stood at 96%.

On to `Cc1cc(=O)n(-c2ccccc2)n1C` [ANTIPYRINE], for which the Fa was 97%. Under `O=C(O)P(=O)(O)O` [FOSCARNET] stands 17%; under `OC[C@H]1O[C@@H](O[C@@H]2[C@@H](CO)O[C@](O)(CO)[C@H]2O)[C@H](O)[C@@H](O)[C@H]1O` [LACTULOSE], 0.6%. Under `OC[C@@H](O)[C@@H](O)[C@H](O)[C@H](O)CO` [MANNITOL] stands 26%; under `Cc1ccccc1N1C(=O)c2cc(S(N)(=O)=O)c(Cl)cc2NC1C` (centres undefined) [METOLAZONE], 64%; under `O=C(O)c1cc(/N=N/c2ccc(O)c(C(=O)O)c2)ccc1O` [OLSALAZINE], 2.3%. Under `C=CCOc1ccccc1OCC(O)CNC(C)C` (centres undefined) [OXPRENOLOL] stands 97%; under `CC(C)NCC(O)COc1cccc2[nH]ccc12` (centres undefined) [PINDOLOL], 92%. As for `CC(=O)Nc1ccc(OCC(O)CNC(C)C)cc1` (centres undefined) [PRACTOLOL], the Fa turned out to be 95%. Under `OC[C@H]1O[C@H](OC[C@H]2O[C@H](O[C@]3(CO)O[C@H](CO)[C@@H](O)[C@@H]3O)[C@H](O)[C@@H](O)[C@@H]2O)[C@H](O)[C@@H](O)[C@H]1O` [RAFFINOSE] stands 0.3%. Under `O=C(O)c1cc(/N=N/c2ccc(S(=O)(=O)Nc3ccccn3)cc2)ccc1O` [SULFASALAZINE] stands 12%. On to `CCN1CCCC1CNC(=O)c1cc(S(N)(=O)=O)ccc1OC` (centres undefined) [SULPIRIDE], for which the Fa came to 36%. Take `NC[C@H]1CC[C@H](C(=O)O)CC1` [TRANEXAMIC ACID]: the Fa turned out to be 55%.
